# “Also recorded” adds a separate entry of the source.
# Columns and labels:
# Type in all cases: in vivo, mouse
# INK-ATTAC mice = test: Stone's T-maze, INK-ATTAC mice treated with AP20187; conditions: chow/HFD INK-ATTAC mice; AP20187 vs vehicle
# Procedure: (§1) INK-ATTAC mice were injected intraperitoneally (i.p.) with AP20187 (10 mg/kg) or vehicle for 3 days every 2 weeks for a total of 8-10 weeks.
# A water-motivated version of the Stone's T-maze was used to measure parameters of cognition. A straight run (for pre-training) or Stone's T-maze were placed into a steel pan filled with water to a depth of approximately 3 cm so that half the height of the interior walls of the maze were under water. The ceilings of both the straight run and maze were covered with clear acrylic to prevent mice from rearing out of the water. These dimensions created a situation that enables the mice to maintain contact with the floor while keeping their heads above water. The mice were placed into a start box and were pushed into the maze using a sliding panel. At the end of the straight run or maze there was a goal box that contains a ramp to a dry floor, which allows the mice to escape from the water upon successful completion of the straight run or maze. On day one, mice underwent straight run training to establish the concept that moving forward allows them to escape the water by reaching a water-free goal box. Successful completion of this phase requires the mice to reach the goal box in 10 seconds or faster in 8 out of 10 trials. […] Maze training commenced the following day. Mice had to complete 9 maze acquisition trials in a single day. […]
# SASP factors = test: Circulating cytokines in blood plasma, INK-ATTAC mice on HFD; conditions: HFD-fed INK-ATTAC mice; AP vs vehicle
# Procedure: as §1
# Serum levels of cytokines: Eotaxin, G-Csf, Tnf-α, Il-6, Ifn-γ, Il-1α, Il-1β, Il-17, Il-2, Kc/Cxcl1, Mcp-1, M-Csf, Mig, Mip-1α, and Mip-1β were determined using a Multiplexing LASER Bead Assay (Mouse Cytokine Array/Chemokine Array 31-Plex (MD31), Eve Technologies; Canada). Blood was withdrawn from mice by punctuation of the sub-mandibular vein at the day of dissection before an animal was sacrificed. 50 μL of serum were shipped to Eve Technologies on dry ice. Due to high variability of data an unbiased elimination of outliers was performed using ROUT's method (Graphpad 7 Prism). The same panel was used to detect SASP in MAF and 50 μl of media was shipped to Eve Technologies on dry ice.
# [1] = test system: senescent cells in the hypothalamus; test: TAF in hypothalamus close to the 3rd ventricle, INK-ATTAC mice; conditions: HFD INK-ATTAC mice, AP20187 vs vehicle
# Procedure: as §1
# Paraffin sections were deparaffinized with Histoclear and hydrated in an ethanol gradient followed by water and PBS. Antigen was retrieved by incubation in 0.01M citrate buffer (pH 6.0) at 95° C. for 10 minutes. Slides were placed in blocking buffer (1:60 normal goat serum [S-1000, Vector Laboratories] in 0.1% BSA/PBS) for 60 minutes at room temperature. […] Primary antibodies used (Table 2) were diluted in blocking buffer and applied overnight at 4° C. The next day, slides were washed 3 times with PBS and incubated for 30 minutes with secondary goat, anti-rabbit antibody (1:200; Vector Laboratories #BA-1000) for TAF staining or for 60 minutes with secondary Alexa antibody (Table 1). For TAF staining, Fluorescein-Avidin in PBS (1:500; #A-2011, Vector Lab) was applied to each sample for 20 minutes. Slides were washed 3 times in PBS, which was followed by FISH for TAF detection. Briefly, tissues were crosslinked with 4% paraformaldehyde for 20 minutes and dehydrated in graded ethanol. Sections were denatured for 10 minutes at 80° C. in hybridization buffer (70% formamide (Sigma), 25 mM MgCl2, 0.1 M Tris (pH 7.2), and 5% blocking reagent [Roche]) containing 2.5 μg ml^−1 Cy-3-labelled telomere-specific (CCCTAA) peptide nucleic acid probe (Panagene), followed by hybridization for 2 hour at room temperature in the dark. Slides were washed twice with 70% formamide in 2×SSC for 15 minutes, followed by washes in 2×SSC and PBS for 10 minutes. Sections were mounted in Vectashield, DAPI-containing mounting media and imaged.
# A single, 3 μm-thick section per mouse was used for TAF staining, while for Dcx and Plin2 staining was performed on three 10 μm-thick sections 80 μm-apart. To quantify periventricular lipid accumulation 10-30 images in the periventricular region were taken using the DM5500 widefield fluorescence microscope from Leica with a 10× (for frequency of periventricular glia) or ×40 (for ALISE phenotype of ependymal cells) objective lens. Number of Plin2-positive cells (for frequency of ALISE-positive periventricular glia) or area of Plin2-positive vesicles (for ALISE phenotype of ependymal cells) was assessed using ImageJ software. For identity assessment of Plin2+ cells, 10 μm-thick sections were stained with combination of antibodies for Iba1 (secondary antibody conjugated with Alexa Fluor 488), Plin2 (secondary antibody conjugated with Alexa Fluor 594), and Vimentin (secondary antibody conjugated with Alexa Fluor 647) and quantified for frequency of Plin2+ astrocytes (Iba1−, Vim+) and microglia (Iba1+) in the periventricular region. A separate staining for Plin2 (secondary antibody conjugated with Alexa Fluor 594) and NeuN (secondary antibody conjugated with Alexa Fluor 647) was used to determine frequency of Plin2+ neurons in periventricular region. For TAF quantification in depth Z stacking was used (images were captured as stacks separated by 0.4 μm with ×63 objective) followed by ImageJ analysis.
# wild-type C57Bl/6 mice = test: Open field test, off-target effects of AP in wild-type C57Bl/6 mice on HFD; conditions: AP 10 mg/kg i.p. 3 days every 2 weeks for 8 weeks
# Procedure: For off target effect measurements db/db and HDF mice (fed with HFD for 2 months prior treatment) were injected intraperitoneally (i.p.) with […] at 10 mg/kg or vehicle for 3 days every 2 weeks for 8 weeks.
# Locomotor activity and anxiety-like behavior of mice were assessed in sound-insulated, rectangular activity chambers (Med Associates Inc., St Albans, Vt., USA: W×L×D=27 cm×27 cm×20 cm with continually running fans, infrared lasers, and sensors). Beam breaks were assessed in 2-minute bins over 30 minutes, converted automatically to current mouse location and distance travelled (cm), and recorded on a computer with Med-PC software Version 4.0. Before the test, mice were acclimatized to the room for 1-1.5 hours before being introduced into the chambers. Mice were habituated for 5 minutes in the Open Field chamber (without recording) then placed for another 5 minutes in the home cage. Afterwards, mice were introduced back to the chambers and all mouse movements were recorded for 30 minutes. Anxiety was quantified by the distance mice travelled in the central 25% of the chamber (zone 1) as a function of the total distance mice travelled and by frequencies of entries into zone 1.
smiles,measurement,setting,value
CC[C@H](C(=O)N1CCCC[C@H]1C(=O)O[C@H](CCc1ccc(OC)c(OC)c1)c1cccc(OCC(=O)NCC(CNC(=O)COc2cccc([C@@H](CCc3ccc(OC)c(OC)c3)OC(=O)[C@@H]3CCCCN3C(=O)[C@@H](CC)c3cc(OC)c(OC)c(OC)c3)c2)CN(C)C)c1)c1cc(OC)c(OC)c(OC)c1 [AP],"short-term memory (Stone's maze: time to finish, frequency of errors)",INK-ATTAC mice,not affected; also recorded: not altered
same,G-Csf in the bloodstream,SASP factors,down-regulated
same,Il-1β in the bloodstream,SASP factors,down-regulated
same,Kc/Cxcl1 in the bloodstream,SASP factors,down-regulated
same,Mcp-1 in the bloodstream,SASP factors,down-regulated
same,Mig in the bloodstream,SASP factors,down-regulated
same,Tnf-α in the bloodstream,SASP factors,down-regulated
same,"% of NeuN-neg cells with 2 or more TAF, hypothalamus close to the 3rd ventricle",[1],significant decrease
same,"% of NeuN-pos cells with 2 or more TAF, hypothalamus close to the 3rd ventricle",[1],significant decrease
same,"mean number of TAF in NeuN-neg cells, hypothalamus close to the 3rd ventricle",[1],significantly reduced
same,"mean number of TAF in NeuN-pos cells, hypothalamus close to the 3rd ventricle",[1],significantly reduced
same,"% of NeuN-neg cells with 2 or more TAF, hypothalamus close to the 3rd ventricle",[1]; listed as AP20187,significantly reduced
same,"% of NeuN-pos cells with 2 or more TAF, hypothalamus close to the 3rd ventricle",[1]; listed as AP20187,significantly reduced
same,"anxiety-like behavior in open field (distance in the center), off-target control",wild-type C57Bl/6 mice,no difference
